Experimental data from patent US7008905B2, “Method of combating undesired plant growth on cereals” (BASF Aktiengesellschaft, priority 2000, dated 2006).

How the values were obtained:
Type in all cases: in vivo
Setaria viridis [1] = test: Post-emergence test, weed control; conditions: 2–4 weeks after treatment, rating 0-100 (100=death), Table 5
Outline: (§1)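 Acetone solutions of compound were diluted with water and sprayed post-emergence at about 0.030 to 0.240 kg per hectare per pot. Plants were kept on greenhouse benches under usual care and rated 2 to 4 weeks after treatment, 0 meaning growth as untreated control and 100 meaning death.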

Apera spica-venti = test: Pre-emergence test, weed control; conditions: 3 weeks after treatment, rating 0-100 (100=death), Table 1
Outline: (§2)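 Herbicidal effect was scored visually on a 0–100 scale (100 = death, 0 = untreated-like) three weeks after treatment. Soil was horticultural loam sprayed just after sowing with aqueous-diluted acetone/0.4% TRITON X-155 formulations at 15–240 g a.i./ha (900 L/ha).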

Stellaria media = test: Pre-emergence test, weed control; conditions: 3 weeks after treatment, rating 0-100 (100=death), Table 1
Outline: as §2

Poa annua = test: Pre-emergence test, weed control; conditions: 3 weeks after treatment, rating 0-100 (100=death), Table 1
Outline: as §2

Veronica persica = test: Pre-emergence test, weed control; conditions: 3 weeks after treatment, rating 0-100 (100=death), Table 1
Outline: as §2

Lolium perenne = test: Pre-emergence test, weed control; conditions: 3 weeks after treatment, rating 0-100 (100=death), Table 1
Outline: as §2

Galium aparine = test: Pre-emergence test, weed control; conditions: 3 weeks after treatment, rating 0-100 (100=death), Table 1
Outline: as §2

Lamium purpureum = test: Pre-emergence test, weed control; conditions: 3 weeks after treatment, rating 0-100 (100=death), Table 1
Outline: as §2

Alopecurus myosuroides = test: Pre-emergence test, weed control; conditions: 3 weeks after treatment, rating 0-100 (100=death), Table 1
Outline: as §2

Setaria viridis [2] = test: Pre-emergence test, weed control; conditions: 3 weeks after treatment, rating 0-100 (100=death), Table 1
Outline: as §2

Polygonum convolvulus = test: Pre-emergence test, weed control; conditions: 3 weeks after treatment, rating 0-100 (100=death), Table 1
Outline: as §2

Matricaria inodora = test: Pre-emergence test, weed control; conditions: 3 weeks after treatment, rating 0-100 (100=death), Table 1
Outline: as §2

[3] = test system: Hordeum vulgare variety “Mammut”; test: Pre-emergence test, selectivity; conditions: 3 weeks after treatment, rating 0-100 (100=death), Table 2
Outline: as §2

[4] = test system: Triticum aestivum variety “Monopol”; test: Pre-emergence test, selectivity; conditions: 3 weeks after treatment, rating 0-100 (100=death), Table 2
Outline: as §2

HORVW = test: Pre-emergence test, selectivity; conditions: 3 weeks after treatment, rating 0-100 (100=death), Table 2
Outline: as §2

[5] = test system: Triticum aestivum variety “Kanzler”; test: Pre-emergence test, selectivity; conditions: 3 weeks after treatment, rating 0-100 (100=death), Table 2
Outline: as §2

[6] = test system: Triticum aestivum variety “Monopol”; test: Post-emergence test, selectivity; conditions: 2–4 weeks after treatment, rating 0-100 (100=death), Table 6
Outline: as §1

[7] = test system: Triticum aestivum variety “Kanzler”; test: Post-emergence test, selectivity; conditions: 2–4 weeks after treatment, rating 0-100 (100=death), Table 6
Outline: as §1

wheat = test: Post-emergence test, tolerance in wheat; conditions: post-emergence
Procedure: These acetone solutions are diluted with water and the resulting formulations applied at dosage levels equivalent of about 0.030 to 0.240 kg per hectare of test compound per pot. After spraying the plants are placed an greenhouse benches and are cared for in the usual manner, commensurate with conventional greenhouse practices. From 2 to 4 weeks after treatment, the seedling plants are examined and rated according to the rating system provided above. A rating 0 indicates growth as untreated control, a rating 100 indicates death.

Compound: FC(F)(F)c1ccc(-c2nccc(Oc3cccc(C(F)(F)F)c3)n2)cc1 [TTP, 4-(3-trifluoromethylphenoxy)-2-(4-trifluoromethyl-phenyl)-pyrimidine]
- SETVI weed control rating (Setaria viridis [1]; 0.030 kg/ha): 93
- SETVI weed control rating (Setaria viridis [1]; 0.060 kg/ha): 97
- SETVI weed control rating (Setaria viridis [1]; 0.120 kg/ha): 97
- SETVI weed control rating (Setaria viridis [1]; 0.240 kg/ha): 100
- APESV weed control rating (Apera spica-venti; 0.015 kg/ha): 100
- APESV weed control rating (Apera spica-venti; 0.030 kg/ha): 100
- APESV weed control rating (Apera spica-venti; 0.060 kg/ha): 100
- APESV weed control rating (Apera spica-venti; 0.120 kg/ha): 100
- APESV weed control rating (Apera spica-venti; 0.240 kg/ha): 100
- STEME weed control rating (Stellaria media; 0.015 kg/ha): 99
- STEME weed control rating (Stellaria media; 0.030 kg/ha): 99
- STEME weed control rating (Stellaria media; 0.060 kg/ha): 100
- STEME weed control rating (Stellaria media; 0.120 kg/ha): 100
- STEME weed control rating (Stellaria media; 0.240 kg/ha): 100
- POAAN weed control rating (Poa annua; 0.015 kg/ha): 100
- POAAN weed control rating (Poa annua; 0.030 kg/ha): 100
- POAAN weed control rating (Poa annua; 0.060 kg/ha): 100
- POAAN weed control rating (Poa annua; 0.120 kg/ha): 100
- POAAN weed control rating (Poa annua; 0.240 kg/ha): 100
- VERPE weed control rating (Veronica persica; 0.015 kg/ha): 100
- VERPE weed control rating (Veronica persica; 0.030 kg/ha): 100
- VERPE weed control rating (Veronica persica; 0.060 kg/ha): 100
- VERPE weed control rating (Veronica persica; 0.120 kg/ha): 100
- VERPE weed control rating (Veronica persica; 0.240 kg/ha): 100
- LOLPE weed control rating (Lolium perenne; 0.015 kg/ha): 70
- LOLPE weed control rating (Lolium perenne; 0.030 kg/ha): 99
- LOLPE weed control rating (Lolium perenne; 0.060 kg/ha): 99
- LOLPE weed control rating (Lolium perenne; 0.120 kg/ha): 99
- LOLPE weed control rating (Lolium perenne; 0.240 kg/ha): 100
- GALAP weed control rating (Galium aparine; 0.015 kg/ha): 5
- GALAP weed control rating (Galium aparine; 0.030 kg/ha): 30
- GALAP weed control rating (Galium aparine; 0.060 kg/ha): 50
- GALAP weed control rating (Galium aparine; 0.120 kg/ha): 75
- GALAP weed control rating (Galium aparine; 0.240 kg/ha): 93
- LAMPU weed control rating (Lamium purpureum; 0.015 kg/ha): 99
- LAMPU weed control rating (Lamium purpureum; 0.030 kg/ha): 100
- LAMPU weed control rating (Lamium purpureum; 0.060 kg/ha): 100
- LAMPU weed control rating (Lamium purpureum; 0.120 kg/ha): 100
- LAMPU weed control rating (Lamium purpureum; 0.240 kg/ha): 100
- ALOMY weed control rating (Alopecurus myosuroides; 0.015 kg/ha): 15
- ALOMY weed control rating (Alopecurus myosuroides; 0.030 kg/ha): 50
- ALOMY weed control rating (Alopecurus myosuroides; 0.060 kg/ha): 90
- ALOMY weed control rating (Alopecurus myosuroides; 0.120 kg/ha): 100
- ALOMY weed control rating (Alopecurus myosuroides; 0.240 kg/ha): 100
- SETVI weed control rating (Setaria viridis [2]; 0.015 kg/ha): 100
- SETVI weed control rating (Setaria viridis [2]; 0.030 kg/ha): 100
- SETVI weed control rating (Setaria viridis [2]; 0.060 kg/ha): 100
- SETVI weed control rating (Setaria viridis [2]; 0.120 kg/ha): 100
- SETVI weed control rating (Setaria viridis [2]; 0.240 kg/ha): 100
- POLCO weed control rating (Polygonum convolvulus; 0.015 kg/ha): 80
- POLCO weed control rating (Polygonum convolvulus; 0.030 kg/ha): 100
- POLCO weed control rating (Polygonum convolvulus; 0.060 kg/ha): 100
- POLCO weed control rating (Polygonum convolvulus; 0.120 kg/ha): 100
- POLCO weed control rating (Polygonum convolvulus; 0.240 kg/ha): 100
- MATIN weed control rating (Matricaria inodora; 0.015 kg/ha): 98
- MATIN weed control rating (Matricaria inodora; 0.030 kg/ha): 99
- MATIN weed control rating (Matricaria inodora; 0.060 kg/ha): 100
- MATIN weed control rating (Matricaria inodora; 0.120 kg/ha): 100
- MATIN weed control rating (Matricaria inodora; 0.240 kg/ha): 100
- HORVWM rating (Selectivity) ([3]; 0.015 kg/ha): 5
- HORVWM rating (Selectivity) ([3]; 0.030 kg/ha): 22
- HORVWM rating (Selectivity) ([3]; 0.060 kg/ha): 30
- HORVWM rating (Selectivity) ([3]; 0.120 kg/ha): 40
- HORVWM rating (Selectivity) ([3]; 0.240 kg/ha): 45
- TRZAWM rating (Selectivity) ([4]; 0.060 kg/ha): 1
- TRZAWM rating (Selectivity) ([4]; 0.120 kg/ha): 5
- TRZAWM rating (Selectivity) ([4]; 0.240 kg/ha): 15
- HORVW rating (Selectivity) (HORVW; 0.015 kg/ha): 10
- HORVW rating (Selectivity) (HORVW; 0.030 kg/ha): 25
- HORVW rating (Selectivity) (HORVW; 0.060 kg/ha): 30
- HORVW rating (Selectivity) (HORVW; 0.120 kg/ha): 50
- HORVW rating (Selectivity) (HORVW; 0.240 kg/ha): 55
- TRZAWK rating (Selectivity) ([5]; 0.120 kg/ha): 3
- TRZAWK rating (Selectivity) ([5]; 0.240 kg/ha): 10
- TRZAWM rating (Selectivity) ([6]; 0.03 kg/ha): 1
- TRZAWM rating (Selectivity) ([6]; 0.06 kg/ha): 8
- TRZAWM rating (Selectivity) ([6]; 0.12 kg/ha): 8
- TRZAWM rating (Selectivity) ([6]; 0.24 kg/ha): 12
- TRZAWK rating (Selectivity) ([7]; 0.03 kg/ha): 2
- TRZAWK rating (Selectivity) ([7]; 0.06 kg/ha): 8
- TRZAWK rating (Selectivity) ([7]; 0.12 kg/ha): 8
- TRZAWK rating (Selectivity) ([7]; 0.24 kg/ha): 15
- maximum tolerated dose in wheat / dose at which sufficiently selective in wheat (wheat): 240 g/ha
